Read-outs that look alike come from different tables or passages of the source.
Key:
MC4R = target: T1, MC4R (Homo sapiens, UniProt P32245); test: Calcium mobilization, HEK-293 transiently expressing MC4R; type: cell-based
T1 construct: expressed in transfected cells; host or cells: HEK-293, pCIneo, transient (FuGene HD)
Method: (§1) Human MC3R (NM_019888), MC4R (NM_005912), and MC5R (NM_005913) were transiently expressed in HEK-293 cells with and without human GPR139 (KR081941) or the chimeric G-protein Gα16. All genes were cloned into pCIneo (Promega, Madison, WI, United States, #E1841). HEK-293 cells were cultured in DMEM/F12 (Gibco, Grand Island, NY, United States, #11039-021), 10% FBS (Hyclone, Logan, UT, United States, # SH300700.03), 50 units/ml penicillin and 50 μg/ml streptomycin (Mediatech, Manassas, VA, United States, #30-001-CI). Cells were seeded at 4 × 10^6 cells in 10 cm dishes and allowed to grow overnight at 37°C, 5% CO2. On the day of transfection, culture media was replaced with F12-K (Mediatech, Manassas, VA, United States, #10-025-CV), 10% FBS, 20 mM HEPES (Hyclone, Logan, UT, United States, #SH30237.01) and transfected with 15 μg DNA (10 μg MCR:5 μg pCIneo, 10 μg MCR:5 μg Gα16 or 7.5 μg MCR:7.5 μg GPR139) using FuGene HD (Promega, Madison, WI, United States, #E2311) according to manufacturer’s instructions. MC3R, MC4R, and MC5R were also transiently expressed in the following GPR139 stably expressing cell lines using the FuGENE HD method: HEK-293 GPR139 clone#33, CHO-TREx GPR139 clone#18, and SK-N-MC/CRE TREx GPR139 clone#35. Stable cell lines were established according to method previously described ([Liu et al., 2015]).
(§2) Intracellular calcium mobilization was measured with the BD calcium kit (BD Bioscience, San Jose, CA, United States). The recombinant cell lines expressing MC3R, MC4R, and MC5R with and without GPR139 or Gα16 were seeded in culture media at a density of 50,000 cells/well into 96-well black/clear-bottom poly-D-lysine treated tissue culture plates. Cells were incubated overnight at 37°C and 5% CO2. Next day, culture media was removed and cells were washed with HBSS prior to dye-loading for 1 h at 37°C and 5% CO2. Agonist stimulation and intracellular calcium measurements were done on the FLIPR Tetra (Molecular Devices, Sunnyvale, CA, United States). For receptor inhibition analysis, antagonists (1 μM HS-024 or 10 μM JNJ-3792165) were added off-line 15 min prior to agonist addition on the Tetra. For G-protein inhibitor experiments, cells were treated with 1 μM YM-254890 for 5 min prior to agonist additions on the Tetra. […] Responses in Figure 6 were normalized to its respective agonist response without antagonist. EC50s were calculated by fitting a three-parameter logistic curve using least-squares non-linear regression analysis as implemented in Graphpad Prism 7.0.

MC5R + GPR139 = MC5R + GPR139 (Homo sapiens, UniProt Q6DWJ6); test: Calcium mobilization, HEK-293 transiently expressing MC5R + GPR139; type: cell-based
Method: as §1, §2

GPR139 [1] = target: T2, GPR139 (Homo sapiens, UniProt Q6DWJ6); test: cAMP assay; type: cell-based; conditions: unpublished data
T2 sequence (Q6DWJ6 1-353): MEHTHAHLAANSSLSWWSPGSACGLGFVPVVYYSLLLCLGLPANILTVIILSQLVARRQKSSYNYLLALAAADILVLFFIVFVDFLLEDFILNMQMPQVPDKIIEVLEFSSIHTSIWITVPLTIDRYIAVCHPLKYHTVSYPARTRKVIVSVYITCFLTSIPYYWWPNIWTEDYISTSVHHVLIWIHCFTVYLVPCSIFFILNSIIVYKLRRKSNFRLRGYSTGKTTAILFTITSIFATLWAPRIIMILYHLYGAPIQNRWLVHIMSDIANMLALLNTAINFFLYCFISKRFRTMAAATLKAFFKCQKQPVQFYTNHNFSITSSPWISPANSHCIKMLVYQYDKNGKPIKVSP

GPR139 [2] = target: T2, GPR139; test: Calcium mobilization, HEK-293 cells stably expressing human GPR139; type: cell-based; set-up: expressed in transfected cells
Method: as §1, §2

MC3R = target: T3, MC3R (Homo sapiens, UniProt P41968); test: Calcium mobilization, HEK-293 transiently expressing MC3R; type: cell-based
T3 construct: expressed in transfected cells; host or cells: HEK-293, pCIneo, transient (FuGene HD)
Method: as §1
(§3) Intracellular calcium mobilization was measured with the BD calcium kit (BD Bioscience, San Jose, CA, United States). The recombinant cell lines expressing MC3R, MC4R, and MC5R with and without GPR139 or Gα16 were seeded in culture media at a density of 50,000 cells/well into 96-well black/clear-bottom poly-D-lysine treated tissue culture plates. Cells were incubated overnight at 37°C and 5% CO2. Next day, culture media was removed and cells were washed with HBSS prior to dye-loading for 1 h at 37°C and 5% CO2. […] EC50s were calculated by fitting a three-parameter logistic curve using least-squares non-linear regression analysis as implemented in Graphpad Prism 7.0.

MC3R + Gα16 = target: T4, MC3R + Gα16 (Homo sapiens, UniProt P41968); test: Calcium mobilization, HEK-293 transiently expressing MC3R + Gα16; type: cell-based
T4 construct: expressed in transfected cells; host or cells: HEK-293, pCIneo, transient (10 μg MCR:5 μg Gα16)
Method: as §1, §3

MC3R + GPR139 = MC3R + GPR139 (Homo sapiens, UniProt Q6DWJ6); test: Calcium mobilization, HEK-293 transiently expressing MC3R + GPR139; type: cell-based
Method: Intracellular calcium mobilization was measured with the BD calcium kit (BD Bioscience, San Jose, CA, United States). The recombinant cell lines expressing MC3R, MC4R, and MC5R with and without GPR139 or Gα16 were seeded in culture media at a density of 50,000 cells/well into 96-well black/clear-bottom poly-D-lysine treated tissue culture plates. Cells were incubated overnight at 37°C and 5% CO2. Next day, culture media was removed and cells were washed with HBSS prior to dye-loading for 1 h at 37°C and 5% CO2. Agonist stimulation and intracellular calcium measurements were done on the FLIPR Tetra (Molecular Devices, Sunnyvale, CA, United States). […] EC50s were calculated by fitting a three-parameter logistic curve using least-squares non-linear regression analysis as implemented in Graphpad Prism 7.0.

GPR139 [3] = target: T2, GPR139; test: [35S]-GTPγS binding assay, membranes of CHO-TREx cells stably expressing GPR139; type: biochemical; set-up: expressed in transfected cells; host or cells: CHO-TREx GPR139 clone#18; conditions: for Stimulation of [35S]-GTPγS incorporation after pertussis toxin treatment: 100 ng/ml pertussis toxin overnight; for Stimulation of [35S]-GTPγS incorporation after pertussis toxin treatment / Effect of YM-254890 on agonist [35S]-GTPγS response: data not shown; for Effect of YM-254890 on agonist [35S]-GTPγS response: 1 μM YM-254890 (Gq inhibitor); for EC50: CHO-TREx GPR139 membranes, mean ± SEM, read-out: pEC50, [35S]-GTPγS binding (converted)
Method: For G-protein inhibitor experiments, CHO-TRex cells stably expressing GPR139 were treated with 100 ng/ml pertussis toxin (Gi/o inhibitor) overnight prior to harvesting cells for membrane preparations. […] Reactions were terminated by rapid filtration through GF/C filterplates (Perkin-Elmer, Waltham, MA, United States) on a Cell Harvester (Perkin-Elmer, Waltham, MA, United States). Filterplates were washed three times with ice-cold wash buffer (50 mM Tris, 5 mM MgCl2) and Microscint-40 was added to each well. Bound radioactivity was measured on a Topcount scintillation counter (Perkin-Elmer, Waltham, MA, United States). […] EC50s were calculated by modeling the response associated with the logarithm of concentration as a three-parameter logistic curve with the Bottom plateau parameter fixed at 0. The fit was obtained using least-squares non-linear regression as implemented in GraphPad Prism 7.0.

GPR139 + MC5R = GPR139 + MC5R (Homo sapiens, UniProt Q6DWJ6); test: Calcium mobilization, stable GPR139-HEK-293 cell line transiently expressing MC5R; type: cell-based
Method: as §1, §3

MC5R + Gα16 = target: T5, MC5R + Gα16 (Homo sapiens, UniProt P33032); test: Calcium mobilization, HEK-293 transiently expressing MC5R + Gα16; type: cell-based; conditions: HEK-293 transient; read-out: Agonist potency (pEC50), MC5R + Gα16 (converted)
T5 construct: expressed in transfected cells; host or cells: HEK-293, pCIneo, transient (10 μg MCR:5 μg Gα16)
Method: as §1, §3

GPR139 [4] = target: T2, GPR139; set-up: method as in Shehata et al. (2016); conditions: ref Shehata et al. (2016); cited from earlier work
GPR139 + MC4R = GPR139 + MC4R (Homo sapiens, UniProt Q6DWJ6); test: Calcium mobilization, stable GPR139-HEK-293 cell line transiently expressing MC4R; type: cell-based
Method: as §1, §3

[5] = HEK-293 transient, read-out: Agonist potency (pEC50), MC4R (converted)
[6] = HEK-293 stable GPR139, read-out: pEC50, calcium mobilization (converted)
[7] = HEK-293 transient, read-out: Agonist potency (pEC50), MC3R (converted)
[8] = HEK-293 transient, read-out: Agonist potency (pEC50), MC3R + Gα16 (converted)

Chain of MC3R + GPR139 (P41968 whole entry partner, one chain of several): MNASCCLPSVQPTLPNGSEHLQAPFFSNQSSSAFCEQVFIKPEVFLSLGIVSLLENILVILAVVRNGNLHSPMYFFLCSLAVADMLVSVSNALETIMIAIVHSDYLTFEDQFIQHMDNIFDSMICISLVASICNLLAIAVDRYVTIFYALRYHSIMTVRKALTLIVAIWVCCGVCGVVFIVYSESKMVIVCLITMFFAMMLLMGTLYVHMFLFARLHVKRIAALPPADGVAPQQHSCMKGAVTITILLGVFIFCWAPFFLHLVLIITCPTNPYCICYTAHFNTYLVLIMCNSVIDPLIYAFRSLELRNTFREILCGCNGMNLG
Chain of GPR139 + MC5R (P33032 whole entry partner, one chain of several): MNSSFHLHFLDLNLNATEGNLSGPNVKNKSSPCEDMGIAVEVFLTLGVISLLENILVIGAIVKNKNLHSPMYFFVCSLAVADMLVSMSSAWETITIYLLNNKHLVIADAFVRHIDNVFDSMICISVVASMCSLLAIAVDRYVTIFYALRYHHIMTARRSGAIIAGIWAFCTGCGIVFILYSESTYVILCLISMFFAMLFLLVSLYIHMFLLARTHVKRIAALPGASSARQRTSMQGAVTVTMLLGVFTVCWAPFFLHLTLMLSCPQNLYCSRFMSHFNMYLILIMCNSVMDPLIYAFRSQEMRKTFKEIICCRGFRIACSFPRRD
Chain of GPR139 + MC4R (P32245 whole entry partner, one chain of several): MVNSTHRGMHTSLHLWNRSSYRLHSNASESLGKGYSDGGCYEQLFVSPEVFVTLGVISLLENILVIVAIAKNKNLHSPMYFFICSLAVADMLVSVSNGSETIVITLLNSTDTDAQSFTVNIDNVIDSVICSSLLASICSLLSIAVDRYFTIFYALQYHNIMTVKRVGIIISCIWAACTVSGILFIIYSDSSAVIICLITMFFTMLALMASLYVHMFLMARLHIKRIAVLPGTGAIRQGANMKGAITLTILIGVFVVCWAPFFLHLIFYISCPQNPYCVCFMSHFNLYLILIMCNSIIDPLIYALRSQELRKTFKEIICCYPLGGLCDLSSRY
Chain of MC5R + GPR139 (P33032 whole entry partner, one chain of several): as the sequence (P33032 whole entry partner, one chain of several) above
T5 sequence (P33032 whole entry): as the sequence (P33032 whole entry partner, one chain of several) above
T1 sequence (P32245 whole entry): as the sequence (P32245 whole entry partner, one chain of several) above
T3 sequence (P41968 whole entry): as the sequence (P41968 whole entry partner, one chain of several) above
T4 sequence (P41968 whole entry): as the sequence (P41968 whole entry partner, one chain of several) above

| SMILES | EC50 (MC4R; [5]) [µM] | EC50 (MC5R + GPR139) [µM] | Agonist potency (pEC50), MC5R + GPR139, No antagonist (MC5R + GPR139) | Response in a cAMP assay (GPR139 [1]) | EC50 (GPR139 [2]; [6]) [µM] | EC50 (MC3R; [7]) [µM] | EC50 (MC3R + Gα16; [8]) [µM] | EC50 (MC3R + GPR139) [µM] | Agonist potency (pEC50), MC3R + GPR139, No antagonist (MC3R + GPR139) | Stimulation of [35S]-GTPγS incorporation after pertussis toxin treatment (GPR139 [3]) | Effect of YM-254890 on agonist [35S]-GTPγS response (GPR139 [3]) | EC50 (GPR139 [3]) [µM] | EC50 (MC5R + Gα16) [µM] | cAMP response (GPR139 [4]) | EC50 (GPR139 + MC4R) [µM] | EC50 (GPR139 + MC5R) [µM] | also measured |
| --- | --- | --- | --- | --- | --- | --- | --- | --- | --- | --- | --- | --- | --- | --- | --- | --- | --- |
| C[C@H](NC(=O)CNC(=O)c1cccc(Cl)c1)c1ccccc1 [JNJ-63533054, 3-chloro-N-[2-oxo-2-[[(1S)-1-phenylethyl]amino]ethyl]benzamide] | > 10 | 0.0209 | 7.68 ± 0.08 | unable to detect a response | 0.0214 | > 10 | > 10 | 0.0372 | 7.43 ± 0.09 | did not stimulate | had no effect | 0.0646 | > 10 | unable to induce or inhibit a cAMP response | 0.0174 | – | Agonist potency (pEC50), stable GPR139-HEK-293 + MC5R (GPR139 + MC5R): 7.80 ± 0.07 |
| N[C@@H](Cc1c[nH]c2ccccc12)C(=O)O [L-Trp, L-tryptophan] | > 3160 | 95.5 | 4.02 ± 0.07 | unable to detect a response | 204 | > 3160 | > 3160 | 87.1 | 4.06 ± 0.06 | did not stimulate | had no effect | 427 | > 3160 | – | 138 | 162 | – |
| COc1cc(OC)cc(C(=O)NNC(=O)Nc2cccc3ccccc23)c1 [TC-O9311] | – | 0.0372 | 7.43 ± 0.06 | unable to detect a response | – | – | – | 0.0692 | 7.16 ± 0.08 | did not stimulate | had no effect | 0.178 | > 10 | unable to induce or inhibit a cAMP response | 0.0617 | 0.0417 | EC50 (MC4R): > 10 µM; EC50 (GPR139 [2]): 0.0776 µM; EC50 (MC3R): > 10 µM; EC50 (MC3R + Gα16): > 10 µM |

— PMC5863515, “Re-evaluation of Adrenocorticotropic Hormone and Melanocyte Stimulating Hormone Activation of GPR139 in Vitro” (Frontiers in Pharmacology, 2018)
